# From US20170198006A1, “PRMT5 INHIBITORS AND USES THEREOF” (Epizyme, Inc., priority 2014, published 2017)
# What was measured:
# [1] = test system: symmetric di-methyl arginine in Z-138 cells; test: Z-138 Methylation Assay (In Cell Western for symmetric di-methyl arginine and DNA content); assay type: cell-based; details: Homo sapiens, read-out: ICW EC50
# Description: Z-138 suspension cells were purchased from ATCC (American Type Culture Collection, Manassas, Va.). RPMI/Glutamax medium, penicillin-streptomycin, heat inactivated fetal bovine serum, and D-PBS were purchased from Life Technologies, Grand Island, N.Y., USA. Odyssey blocking buffer, 800CW goat anti-rabbit IgG (H+L) antibody, and Licor Odyssey infrared scanner were purchased from Licor Biosciences, Lincoln, Nebr., USA. Symmetric di-methyl arginine antibody was purchased from EMD Millipore, Billerica, Mass., USA. 16% Paraformaldehyde was purchased from Electron Microscopy Sciences, Hatfield, Pa., USA.
# Z-138 suspension cells were maintained in growth medium (RPMI 1640 supplemented with 10% v/v heat inactivated fetal bovine serum and 100 units/mL penicillin-streptomycin) and cultured at 37° C. under 5% CO2.
# Cell Treatment, in Cell Western (ICW) for Detection of Symmetric Di-Methyl Arginine and DNA Content.
# Z-138 cells were seeded in assay medium at a concentration of 50,000 cells per mL to a 384-well cell culture plate with 50 μL per well. Compound (100 nL) from 384 well source plates was added directly to 384 well cell plate. Plates were incubated at 37° C., 5% CO2 for 96 hours. After four days of incubation, 40 μL of cells from incubated plates were added to poly-D-lysine coated 384 well culture plates (BD Biosciences 356697). Plates were incubated at room temperature for 30 minutes then incubated at 37° C., 5% CO2 for 5 hours. After the incubation, 40 μL per well of 8% paraformaldehyde in PBS (16% paraformaldahyde was diluted to 8% in PBS) was added to each plate and incubated for 30 minutes. Plates were transferred to a Biotek 405 plate washer and washed 5 times with 100 μL per well of wash buffer (1×PBS with 0.1% Triton X-100 (v/v)). Next 30 μL per well of Odyssey blocking buffer were added to each plate and incubated 1 hour at room temperature. Blocking buffer was removed and 20 μL per well of primary antibody was added (symmetric di-methyl arginine diluted 1:100 in Odyssey buffer with 0.1% Tween 20 (v/v)) and plates were incubated overnight (16 hours) at 4° C. Plates were washed 5 times with 100 μL per well of wash buffer. Next 20 μL per well of secondary antibody was added (1:200 800CW goat anti-rabbit IgG (H+L) antibody, 1:1000 DRAQ5 (Biostatus limited) in Odyssey buffer with 0.1% Tween 20 (v/v)) and incubated for 1 hour at room temperature. The plates were washed 5 times with 100 μL per well wash buffer then 1 time with 100 μL per well of water. Plates were allowed to dry at room temperature then imaged on the Licor Odyssey machine which measures integrated intensity at 700 nm and 800 nm wavelengths. Both 700 and 800 channels were scanned.
# First, the ratio for each well was determined by:
# Each plate included fourteen control wells of DMSO only treatment (minimum inhibition) as well as fourteen control wells for maximum inhibition treated with 3 μM of a reference compound (Background wells). The average of the ratio values for each control type was calculated and used to determine the percent inhibition for each test well in the plate. Reference compound was serially diluted three-fold in DMSO for a total of nine test concentrations, beginning at 3 μM. Percent inhibition was determined and IC50 curves were generated using triplicate wells per concentration of compound.
# [2] = test system: Z-138 cells; test: Z-138 Proliferation Assay (Cell Titer Glo, 5 days); assay type: cell-based; details: Homo sapiens, 120 h
# Description: Z-138 Proliferation Assay
# Z-138 suspension cells were purchased from ATCC (American Type Culture Collection, Manassas, Va.). RPMI/Glutamax medium, penicillin-streptomycin, heat inactivated fetal bovine serum were purchased from Life Technologies, Grand Island, N.Y., USA. V-bottom polypropylene 384-well plates were purchased from Greiner Bio-One, Monroe, N.C., USA. Cell culture 384-well white opaque plates were purchased from Perkin Elmer, Waltham, Mass., USA. Cell-Titer Glo® was purchased from Promega Corporation, Madison, Wis., USA. SpectraMax M5 plate reader was purchased from Molecular Devices LLC, Sunnyvale, Calif., USA.
# Z-138 suspension cells were maintained in growth medium (RPMI 1640 supplemented with 10% v/v heat inactivated fetal bovine serum and cultured at 37° C. under 5% CO2. Under assay conditions, cells were incubated in assay medium (RPMI 1640 supplemented with 10% v/v heat inactivated fetal bovine serum and 100 units/mL penicillin-streptomycin) at 37° C. under 5% CO2.
# For the assessment of the effect of compounds on the proliferation of the Z-138 cell line, exponentially growing cells were plated in 384-well white opaque plates at a density of 10,000 cells/ml in a final volume of 50 μl of assay medium. A compound source plate was prepared by performing triplicate nine-point 3-fold serial dilutions in DMSO, beginning at 10 mM (final top concentration of compound in the assay was 20 μM and the DMSO was 0.2%). A 100 nL aliquot from the compound stock plate was added to its respective well in the cell plate. […] After addition of compounds, assay plates were incubated for 5 days at 37° C., 5% CO2, relative humidity >90%.
# Cell viability was measured by quantitation of ATP present in the cell cultures, adding 35 μl of Cell Titer Glo® reagent to the cell plates. Luminescence was read in the SpectraMax M5 microplate reader. The concentration of compound inhibiting cell viability by 50% was determined using a 4-parametric fit of the normalized dose response curves.
# [3] = target: T1, PRMT5/MEP50 (Homo sapiens, UniProt O14744); test: PRMT5 Biochemical Assay (PRMT5/MEP50 enzyme assay on histone H4 peptide substrate, 3H-SAM Flashplate); details: PRMT5 biochemical assay; read-out: Biochemical IC50
# T1 construct: Flag-PRMT5; made in house; host or cells: Spodoptera frugiperda (SF9), baculovirus
# How it was run: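 Sf9-expressed Flag-PRMT5/6His-MEP50 preincubated with compound 30 min at 25 °C, then methylation of biotinylated H4 1-15 peptide started with ³H-SAM in 20 mM Bicine pH 7.6, 1 mM TCEP, 0.005% BSG, 0.002% Tween20.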
# T1 sequence (O14744 with tags, fused parts or gaps): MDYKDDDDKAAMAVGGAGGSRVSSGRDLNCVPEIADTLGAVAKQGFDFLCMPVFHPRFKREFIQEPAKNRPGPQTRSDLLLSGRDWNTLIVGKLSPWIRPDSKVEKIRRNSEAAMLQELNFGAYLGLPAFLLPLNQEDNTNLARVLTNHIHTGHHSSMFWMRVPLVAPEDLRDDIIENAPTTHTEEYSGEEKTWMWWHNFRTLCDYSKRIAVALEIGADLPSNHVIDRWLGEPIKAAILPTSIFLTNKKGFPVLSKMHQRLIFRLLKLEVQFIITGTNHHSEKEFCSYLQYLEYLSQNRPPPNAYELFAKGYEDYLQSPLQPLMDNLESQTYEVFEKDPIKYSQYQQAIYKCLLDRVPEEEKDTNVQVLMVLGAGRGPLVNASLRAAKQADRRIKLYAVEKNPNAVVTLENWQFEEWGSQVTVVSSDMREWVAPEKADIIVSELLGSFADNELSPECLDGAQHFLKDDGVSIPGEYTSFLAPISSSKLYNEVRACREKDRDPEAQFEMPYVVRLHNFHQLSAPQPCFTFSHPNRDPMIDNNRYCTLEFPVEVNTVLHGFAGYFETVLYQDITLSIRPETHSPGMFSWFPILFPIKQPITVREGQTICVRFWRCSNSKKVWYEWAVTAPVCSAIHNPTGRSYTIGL
# T1 sequence (Q9BQA1 with tags, fused parts or gaps partner limits assumed): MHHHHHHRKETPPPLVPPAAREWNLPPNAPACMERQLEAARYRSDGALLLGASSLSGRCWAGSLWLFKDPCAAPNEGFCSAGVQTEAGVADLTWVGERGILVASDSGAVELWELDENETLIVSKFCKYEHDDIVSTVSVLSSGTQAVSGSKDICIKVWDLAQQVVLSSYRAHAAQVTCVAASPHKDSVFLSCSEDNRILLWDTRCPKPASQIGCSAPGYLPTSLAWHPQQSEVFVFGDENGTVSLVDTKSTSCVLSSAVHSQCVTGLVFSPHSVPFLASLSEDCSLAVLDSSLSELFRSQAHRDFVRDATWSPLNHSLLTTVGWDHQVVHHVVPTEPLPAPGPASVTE
SMILES,EC50 [1] [nM],IC50 [3] [nM],EC50 [2] [nM]
CN(C)c1cccc2c(S(=O)(=O)NC3CCN(Cc4ccccc4)C3)cccc12 (stereo not drawn) [Compound 1-5],1000 to 10000,101 to 1000,> 20000
O=C(CC1NC(N2CCN(c3ccccc3)CC2)=NC1=O)Nc1ccc(Cl)cc1 (stereo not drawn) [Compound 1-6],101 to 1000,101 to 1000,> 20000
OC(COc1cccc(-c2ccc3ncsc3c2)c1)CN1CCc2ccccc2C1 (stereo not drawn) [Compound 1-9],1000 to 10000,101 to 1000,10000 to 50000
Cc1cccc(Cn2ccnc2CN)c1 [Compound 1-13],> 1000,1000 to 10000,> 5000
Cc1ccc(C(=O)CC2NC(N3CCN(c4ccccc4)CC3)=NC2=O)cc1 (stereo not drawn) [Compound 1-14],1000 to 10000,101 to 1000,> 20000
O=C1CC(NS(=O)(=O)c2cccc3ccccc23)CN1c1ccccc1 (stereo not drawn) [Compound 2-4],101 to 1000,101 to 1000,10000 to 50000
"CN(C)c1cccc2c(S(=O)(=O)N[C@H]3CCN(Cc4ccccc4)C3)cccc12 [Compound 2-5, (S)—N-(1-benzylpyrrolidin-3-yl)-5-(dimethylamino)naphthalene-1-sulfonamide]",101 to 1000,< 100,> 20000
"CN(C)c1cccc2c(S(=O)(=O)NCCC(N)Cc3ccccc3)cccc12 (stereo not drawn) [Compound 2-7, N-(3-amino-4-phenylbutyl)-5-(dimethylamino)naphthalene-1-sulfonamide]",101 to 1000,< 100,1000 to 10000
CC1CC(Nc2cccc(C(=O)NC[C@H](O)CN3CCc4ccccc4C3)c2)CC(C)O1 (stereo partly drawn) [Compound 2-9],< 100,< 100,101 to 1000
CS(=O)(=O)N1CCC(Nc2cncc(C(=O)NC[C@H](O)CN3Cc4ccccc4C3)c2)CC1 [Compound 2-11],101 to 1000,< 100,10000 to 50000
NCc1nccn1Cc1cccc(Cl)c1 [Compound 2-13],> 1000,1000 to 10000,> 5000
CN(C)c1cccc2c(S(=O)(=O)NCC3CCN(Cc4ccco4)CC3)cccc12 [Compound 3-3],1000 to 10000,101 to 1000,10000 to 50000
"CN(C)c1cccc2c(S(=O)(=O)N[C@H]3CC(=O)N(c4ccccc4)C3)cccc12 [Compound 3-4, (S)-5-(dimethylamino)-N-(5-oxo-1-phenylpyrrolidin-3-yl)naphthalene-1-sulfonamide]",< 100,< 100,1000 to 10000
"CN(C)c1cccc2c(S(=O)(=O)NC3CN(Cc4ccccc4)C3)cccc12 [Compound 3-5, N-(1-benzylazetidin-3-yl)-5-(dimethylamino)naphthalene-1-sulfonamide]",101 to 1000,< 100,10000 to 50000
CN(C)c1cccc2c(S(=O)(=O)NCCC(N)c3ccccc3)cccc12 (stereo not drawn) [Compound 3-7],101 to 1000,< 100,10000 to 50000
O=C(NC[C@H](O)CN1CCc2ccccc2C1)c1cc(NC2CCN(CC(F)(F)F)CC2)ncn1 [Compound 3-9],< 100,< 100,101 to 1000
O=C(NC[C@H](O)CN1Cc2ccccc2C1)c1cc(NC2COC2)ncn1 [Compound 3-11],101 to 1000,101 to 1000,10000 to 50000
Cc1cn(Cc2ccccc2)c(CN)n1 [Compound 3-13],> 1000,101 to 1000,> 5000
CC(=O)c1ccc(NC(=O)CC2NC(N3CCN(Cc4ccccc4)CC3)=NC2=O)cc1 (stereo not drawn) [Compound 3-14],> 20000,1000 to 10000,> 20000

# Further lines, with some results ahead:
EC50 [1] [nM],IC50 [3] [nM],SMILES,EC50 [2] [nM]
101 to 1000,101 to 1000,Cc1ccccc1N1CC(NS(=O)(=O)c2cccc3c(N(C)C)cccc23)CC1=O (stereo not drawn) [Compound 4-4],10000 to 50000
< 100,< 100,CC(C)(C)C(=O)N1CCN(c2nc(NC3COC3)cc(C(=O)NC[C@H](O)CN3CCc4ccccc4C3)n2)CC1 [Compound 4-9],< 100
101 to 1000,101 to 1000,O=C(NC[C@H](O)CN1Cc2ccccc2C1)c1cc(NC2CNC2)ncn1 [Compound 4-11],> 1000
> 1000,10000 to 50000,COc1ccc(Cn2c(CN3CCCCC3)cnc2CN)cc1 [Compound 4-13],> 5000
101 to 1000,< 100,CN(C)c1cccc2c(S(=O)(=O)NC3CC(=O)N(c4ccccc4F)C3)cccc12 (stereo not drawn) [Compound 5-4],1000 to 10000
101 to 1000,< 100,"CN(C)c1cccc2c(S(=O)(=O)NC[C@@H](N)Cc3ccccc3)cccc12 [Compound 5-7, (S)—N-(2-amino-3-phenylpropyl)-5-(dimethylamino)naphthalene-1-sulfonamide]",1000 to 10000
< 100,< 100,CN1CCC(Nc2ccnc(C(=O)NC[C@H](O)CN3CCc4ccccc4C3)c2)CC1 [Compound 5-9],> 5000
101 to 1000,< 100,CC(=O)N1CC(Nc2cc(C(=O)NC[C@H](O)CN3Cc4ccccc4C3)ncn2)C1 [Compound 5-11],1000 to 10000
101 to 1000,101 to 1000,CC(=O)N1CC(Nc2cc(C(=O)NCC(C)(O)CN3CCc4ccccc4C3)ncn2)C1 (stereo not drawn) [Compound 6-9],> 5000
101 to 1000,101 to 1000,O=C(NC[C@H](O)CN1Cc2ccccc2C1)c1cncc(NC2CCN(CC(F)(F)F)CC2)c1 [Compound 6-11],10000 to 50000
> 1000,10000 to 50000,NCc1nccn1Cc1cccc(Br)c1 [Compound 6-13],> 5000
< 100,< 100,CN(C)c1cccc2c(S(=O)(=O)NC3CC(=O)N(c4ccccc4N)C3)cccc12 (stereo not drawn) [Compound 7-4],1000 to 10000
< 100,< 100,CC(=O)N1CC(Nc2cc(C(=O)NC[C@@H](O)CN3CCc4ccccc4C3)ncn2)C1 [Compound 7-9],1000 to 10000
101 to 1000,101 to 1000,O=C(NC[C@H](O)CN1Cc2ccccc2C1)c1cncc(NC2CCOCC2)c1 [Compound 7-11],1000 to 10000
1000 to 10000,101 to 1000,CN(C)c1cccc2c(S(=O)(=O)NC3CC(=O)N(c4ccccc4Cl)C3)cccc12 (stereo not drawn) [Compound 8-4],10000 to 50000
